Assays:
[1] = system: ovariectomized estrogen treated rat; experiment: Lordotic response in the ovariectomized estrogen treated rat (female sexual behavior); format: in vivo
Description: For initial preclinical evaluation of the effects on sexual behavior, the following study was conducted to evaluate the effects of test compound on lordotic response in the ovariectomized estrogen treated rat.
Animals: Long-Evans hooded female rates (100-125 g) male Sprague-Dawley rats (150-175 g) were obtained from Charles River Breeding laboratories.
Chemicals: Progesterone (Cat. # P-0130; Lot 128H0456) and estrone (Cat # E-9750; Lot 28H0372) were purchased from Sigma Chemical Company and quinelorane Cat # Q-110; Lot PRF-694A) and bupropion (Cat # B-102; BS-11-10) were purchased from Research Biochemicals Incorporated. Test compound (Lot # D5-91B) was synthesized at SK Biopharmaceutical Center, Fairfield, N.J. Estrone and progesterone were dissolved in propylene glycol (Fisher Scientific P355-1; Lot # 992032). test compound, quinelorane and bupropion were dissolved in sterile saline (0.9% NaCl, Abbott Laboratories Lot #25-270-DK).
Protocol for ovariectomy: Female rats (108-120 g) were anesthetized with 100 mg/kg s.c. ketamine (Ketaset 100 mg/ml, Ford Dodge Laboratories, lot #440339) and 7 mg/kg s.c. xylazine (Rompun 20 mg/ml, Bayer Corporation, lot #26050E). A midline incision (1 cm) on the ventral surface was made starting approximately 0.5-1 cm from the genitalia. A second incision (1 cm) was through the linea alba connecting fascia for abdominal muscles. The body of the uterus was located near the pubic bone and retracted through the abdominal incision. The uterine horns with ovaries were retracted through the abdominal wall. Each uterine horn was ligated near the uterine body bisected and removed. The abdominal, wall was closed with 2 sutures and the skin incision was closed with either wound clips or sutures. The rats were kept warm until they recovered from the anesthesia. OVX=ovariectomized.
Accelerated light cycle (10:14): Lights were on from 1 am to 11 am. During dark phase, the room was kept dark except for lighting from red lights needed to observe the behaviors.
Behavior observation arenas: Side walls (45×60 cm) and top (60×60 cm) with hole (15×15 cm) were constructed of clear Lucite plastic and bonded together with adhesive. The base was made from stainless steel grating and was placed over bedding material. Arenas and base were washed between experiments.
Protocol for female sexual behavior: At least 2-3 hours into the dark phase of the lighting cycle, male rats are placed into the behavior arenas and allowed to acclimate for 15 minutes prior to testing. Prior to the testing of experimental animals, the males are exposed to sexually receptive, OVX rats treated with estrone 0.25 mg s.c. 48 hours prior to test and progesterone 1 mg s.c. 6 hours prior to test. When active mating occurs, the receptive females are removed. The test female (OVX treated only with estrone 0.25 mg 48 hours prior to test) is added to the arena with the activated male. The number of lordosis responses for 15 mounts is recorded (lordosis is defined as a downward arching of the back to expose genitalia).
During this first test period, only female rats with a L/M of 4/15 or lower were treated with test drug and 90 minutes later the rats were retested as previously for 15 mounts. This exclusion criterion is used to lower the variance due to rats that become overly receptive to estrone. The index of change is the change in L/M between test 2 and test 1. Statistical comparisons of the treatment groups were made using ANOVA followed by a Dunnett's test for multiple treatment group designs and a Student's t test for single control and treatment designs with the minimum level of significance set at p<0.05.

patients = settings: Foreman 1995; cited from earlier work
humans = experiment: Placebo controlled antidepressant trial in humans, analysis of post trial questionnaires; format: in vivo, human; settings: mostly in males
From the text: This was a large placebo controlled study where the test compound was compared with a conventional SSRI antidepressant (Paroxetine). […] This study was not designed to see or evaluate this property of the compound and so future studies directed specifically to assess this property of test compound in humans will be performed.

rats and mice = experiment: Locomotor activity in rats and mice; format: in vivo; settings: at higher dose
From the text: Although the mechanism of action of test compound is unknown, this pharmacological profile may involve activation of central catecholaminergic pathways.

SMILES | Lordotic response compared to vehicle treatment ([1]; 30 mg/kg s.c.) | Change in Lordotic Response ([1]; 30 mg/kg s.c., change in L/M, * significantly different from vehicle (Student's test)) | Effect on sexual response in patients (patients) | Lordotic response compared to vehicle treatment ([1]; 25 μg/kg s.c.) | Change in Lordotic Response ([1]; 25 μg/kg s.c., change in L/M, * significantly different from vehicle (Student's test)) | Dose of peak effect on interest in sex and ability to have an orgasm (humans) | Effect on interest in sex and ability to have an orgasm (post trial questionnaires) (humans; placebo controlled study with Paroxetine comparator) | Effects on locomotor activity (rats and mice) | Change in Lordotic Response ([1]; 10 mg/kg s.c., change in L/M between test 2 and test 1, retest 90 minutes after drug, OVX estrone treated female rats) | Change in Lordotic Response ([1]; 30 mg/kg s.c., change in L/M between test 2 and test 1, retest 90 minutes after drug, * significantly different from vehicle (ANOVA, Dunnett's test)) | Change in Lordotic Response ([1]; 100 mg/kg s.c., change in L/M between test 2 and test 1, retest 90 minutes after drug, * significantly different from vehicle (ANOVA, Dunnett's test)) | Lordotic response compared to vehicle treatment ([1]; 30 and 100 mg/kg s.c.) | Lordotic behavior in the female rat, dose relation ([1]; doses of 10, 30 and 100 mg/kg s.c.)
CC(NC(C)(C)C)C(=O)c1cccc(Cl)c1 (centres unmarked) [Bupropion, bupropion, reference compound] | significant increases in lordotic response | 0.478 +/− 0.073 * | augment sexual response in patients |  |  |  |  |  |  |  |  |  | 
CCCN1CCC[C@@H]2Cc3nc(N)ncc3C[C@H]21 [Quinelorane, quinelorane, reference compound] |  |  | augment sexual response in patients | significant increases in lordotic response | 0.593 +/− 0.056 * |  |  |  |  |  |  |  | 
NC(=O)OC[C@H](N)Cc1ccccc1 [test compound, O-carbamoyl-(D)-phenylalaninol] |  |  |  |  |  | 400 mg per day | increasing interest in sex and in ability to have an orgasm | stimulant-like effects on locomotor activity | 0.338 +/− 0.049 | 0.476 +/− 0.049 * | 0.559 +/− 0.059 * | significantly greater lordotic response than vehicle treatment | dose-related increases in lordotic behavior
